Experimental findings from patent publication US20250017935A1, “7,8-DIHYDRO-5H-1,6-NAPHTHYRIDINE DERIVATIVES AS POSITIVE ALLOSTERIC MODULATORS OF THE MUSCARINIC ACETYLCHOLINE RECEPTOR M4 FOR TREATING NEUROLOGICAL AND PSYCHIATRIC DISORDERS” (Vanderbilt University, priority 2021, published 2025) are described below.

The experiment deals with T1, Human M4 (Homo sapiens, UniProt P08173).
T1 construct: expressed in transfected cells; host or cells: CHO-K1 (ATCC), stably expressing hM4 and Gqi5
T1 sequence (P08173 1-479): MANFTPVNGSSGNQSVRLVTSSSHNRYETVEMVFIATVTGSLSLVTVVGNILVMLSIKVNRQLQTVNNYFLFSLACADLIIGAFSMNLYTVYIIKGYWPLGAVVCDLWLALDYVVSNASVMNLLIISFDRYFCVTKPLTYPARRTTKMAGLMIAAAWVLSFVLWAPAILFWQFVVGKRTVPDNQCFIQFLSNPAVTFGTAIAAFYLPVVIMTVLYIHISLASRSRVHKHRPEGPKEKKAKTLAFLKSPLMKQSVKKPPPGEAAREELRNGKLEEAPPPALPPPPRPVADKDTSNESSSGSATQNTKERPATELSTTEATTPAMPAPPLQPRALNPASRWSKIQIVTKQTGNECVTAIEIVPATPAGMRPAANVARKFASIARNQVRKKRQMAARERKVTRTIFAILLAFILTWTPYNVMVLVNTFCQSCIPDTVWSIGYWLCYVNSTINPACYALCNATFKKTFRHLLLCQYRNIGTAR
Nature of the experiment: mAChR M4 cell-based functional assay (calcium flux, potentiation of EC20 acetylcholine response) in hM4-Gqi5 CHO-K1 cells. The conditions noted are these: for Emax at 30 µM: % ACh maximum at 30 μM, human M4 CHO-K1 cells; for EC50: CHO-K1 cells transfected with human M4 and Gqi5, positive allosteric modulator activity, EC20 acetylcholine. As to the method:
Human M4 cDNA, along with the chimeric G protein Gqi5, were transfected into Chinese hamster ovary (CHO-K1) cells purchased from the American Type Culture Collection using commercially available Lipofectamine 2000 transfection reagent (Dalby, B. et al., Methods (2004) 33(2), 95-103). hM4-Gqi5 cells were grown in Ham's F-12 medium containing 10% heat-inactivated fetal bovine serum (FBS), 20 mM HEPES, 50 μg/mL G418 sulfate (CAS #108321-42-2), and 500 μg/mL Hygromycin B. rM4-Gqi5 cells were grown in DMEM containing 10% heat-inactivated FBS, 20 mM HEPES, 400 μg/mL G418 sulfate, and 500 μg/mL Hygromycin B.
For high throughput measurement of agonist-evoked increases in intracellular calcium, CHO-K1 cells stably expressing muscarinic receptors were plated in growth medium lacking G418 sulfate and hygromycin at 15,000 cells/20 μL/well in Greiner 384-well black-walled, tissue culture (TC)-treated, clear-bottom plates (VWR). Cells were incubated overnight at 37° C. and 5% CO2. The next day, cells were washed using an ELX 405 (BioTek) with assay buffer; the final volume was then aspirated to 20 μL. Next, 20 μL of a 2.3 μM stock of Fluo-4/acetoxymethyl ester (Invitrogen, Carlsbad, CA), prepared as a 2.3 mM stock in DMSO and mixed in a 1:1 ratio with 10% (w/v) Pluronic F-127 and diluted in assay buffer, was added to the wells and the cell plates were incubated for 50 minutes at 37° C. and 5% CO2. Dye was removed by washing with the ELX 405 and the final volume was aspirated to 20 μL. Compound master plates were formatted in an 11 point concentration-response curve (CRC) format (1:3 dilutions) in 100% DMSO with a starting concentration of 10 mM using a BRAVO liquid handler (Agilent). Test compound CRCs were then transferred to daughter plates (240 nL) using the Echo acoustic plate reformatter (Labcyte, Sunnyvale, CA) and then diluted into assay buffer (40 μL) to a 2× stock using a Thermo Fisher Combi (Thermo Fisher Scientific, Waltham, MA).
Calcium flux was measured using the Functional Drug Screening System (FDSS) 6000 or 7000 (Hamamatsu Corporation, Tokyo, Japan) as an increase in the fluorescent static ratio. Compounds were applied to cells (20 μL, 2×) using the automated system of the FDSS at 2-4 seconds into the protocol and the data were collected at 1 Hz. […] Agonist activity was analyzed as a concentration-dependent increase in calcium mobilization upon compound addition. Positive allosteric modulator activity was analyzed as a concentration-dependent increase in the EC20 acetylcholine response. With the acetylcholine EC20 set as baseline, the test compound EC50 is determined as the concentration that produces an increase above baseline of 50% of the maximum increase in acetylcholine response elicted by the test compound. Antagonist activity was analyzed as a concentration-dependent decrease in the EC80 acetylcholine response. Concentration-response curves were generated using a four-parameter logistical equation in XLFit curve fitting software (IDBS, Bridgewater, NJ) for Excel (Microsoft, Redmond, WA) or Prism (GraphPad Software, Inc., San Diego, CA).
Compounds were synthesized as described above. Activity (EC50 and Emax) was determined in the mAChR M4 cell-based functional assay as described above and the data are shown in Table 5. The compound numbers correspond to the compound numbers used in Examples 1-13 and Tables 1, 2, and 3.

Turning to `Cc1nn(C)cc1-c1cnc2c(c1)CN(c1ncnc3c(C)csc13)CC2` [Compound 23, 4-[3-(1,3-dimethylpyrazol-4-yl)-7,8-dihydro-5H-1,6-naphthyridin-6-yl]-7-methyl-thieno[3,2-d]pyrimidine], the Emax (as a rule, the maximal effect, on the per cent scale that the assay sets) at 30 µM amounted to 59% and the EC50 (usually the concentration giving half of the maximal effect) is 560 nM.
Taken in the same sequence, the figures for `Cc1csc2c(N3CCc4ncc(N5CCOc6ncccc65)cc4C3)ncnc12` [Compound 24, 1-[6-(7-methylthieno[3,2-d]pyrimidin-4-yl)-7,8-dihydro-5H-1,6-naphthyridin-3-yl]-2,3-dihydropyrido[2,3-b][1,4]oxazine] were 70% and 220 nM.
As for `Cc1csc2ncnc(N3CCc4ncc(N5CCCn6nccc65)cc4C3)c12` [Compound 25, 4-[3-(6,7-dihydro-5H-pyrazolo[1,5-a]pyrimidin-4-yl)-7,8-dihydro-5H-1,6-naphthyridin-6-yl]-5-methyl-thieno[2,3-d]pyrimidine], the Emax at 30 µM stood at 96% and the EC50 turned out to be 60 nM.
In the case of `Cc1csc2ncnc(N3CCc4ncc(-c5cnn(C6CC6)c5)cc4C3)c12` [Compound 26, 4-[3-(1-cyclopropylpyrazol-4-yl)-7,8-dihydro-5H-1,6-naphthyridin-6-yl]-5-methyl-thieno[2,3-d]pyrimidine], the Emax at 30 µM was 75% and the EC50 was determined as 280 nM.
The like results for `Cc1ccc(F)c(Oc2cnc3c(c2)CN(c2ncnc4ccsc24)CC3)c1` [Compound 27, 4-[3-(2-fluoro-5-methyl-phenoxy)-7,8-dihydro-5H-1,6-naphthyridin-6-yl]thieno[3,2-d]pyrimidine] were, in that order, 36% and 2380 nM.
Take `Cc1nn(C)cc1-c1cnc2c(c1)CN(c1ncnc3scc(C)c13)CC2` [Compound 28, 4-[3-(1,3-dimethylpyrazol-4-yl)-7,8-dihydro-5H-1,6-naphthyridin-6-yl]-5-methyl-thieno[2,3-d]pyrimidine]: the Emax at 30 µM turned out to be 78% and the EC50 turned out to be 90 nM.
Taken in the same sequence, the figures for `FC(F)(F)c1cnc2c(c1)CN(c1ncnc3scc(Br)c13)CC2` [Compound 29, 5-bromo-4-[3-(trifluoromethyl)-7,8-dihydro-5H-1,6-naphthyridin-6-yl]thieno[2,3-d]pyrimidine] were 74% and 310 nM.
On to `FC(F)(F)c1cnc2c(c1)CN(c1ncnc3sc(Br)cc13)CC2` [Compound 30, 6-bromo-4-[3-(trifluoromethyl)-7,8-dihydro-5H-1,6-naphthyridin-6-yl]thieno[2,3-d]pyrimidine], for which the maximal response (Emax) at 30 µM was 88% and the EC50 was determined as 80 nM.
The like results for `CC(C)c1cc2c(N3CCc4ncc(N5CCCn6nccc65)cc4C3)ncnc2s1` [Compound 31, 4-[3-(6,7-dihydro-5H-pyrazolo[1,5-a]pyrimidin-4-yl)-7,8-dihydro-5H-1,6-naphthyridin-6-yl]-6-isopropyl-thieno[2,3-d]pyrimidine] were, in that order, 58% and 440 nM.
The like results for `Cc1csc2ncnc(N3CCc4ncc(Oc5ccccc5F)cc4C3)c12` [Compound 32, 4-[3-(2-fluorophenoxy)-7,8-dihydro-5H-1,6-naphthyridin-6-yl]-5-methyl-thieno[2,3-d]pyrimidine] were, in that order, 59% and 560 nM.
The like results for `Fc1ccccc1Oc1cnc2c(c1)CN(c1ncnc3sccc13)CC2` [Compound 33, 4-[3-(2-fluorophenoxy)-7,8-dihydro-5H-1,6-naphthyridin-6-yl]thieno[2,3-d]pyrimidine] were, in that order, 46% and 200 nM.
Consider `Cn1nccc1Nc1cnc2c(c1)CN(c1ncnc3sccc13)CC2` [Compound 34, N-(2-methylpyrazol-3-yl)-6-thieno[2,3-d]pyrimidin-4-yl-7,8-dihydro-5H-1,6-naphthyridin-3-amine], for which the Emax at 30 µM was 55% and the EC50 was 100 nM.
The like results for `Cc1noc(C)c1-c1cnc2c(c1)CN(c1ncnc3sc(C(C)C)cc13)CC2` [Compound 35, 4-[6-(6-isopropylthieno[2,3-d]pyrimidin-4-yl)-7,8-dihydro-5H-1,6-naphthyridin-3-yl]-3,5-dimethyl-isoxazole] were, in that order, 22% and 1230 nM.
With `[2H]c1csc2ncnc(N3CCc4ncc(C(F)(F)F)cc4C3)c12` [Compound 36, 5-deuterio-4-[3-(trifluoromethyl)-7,8-dihydro-5H-1,6-naphthyridin-6-yl]thieno[2,3-d]pyrimidine], the Emax at 30 µM was determined as 78% and the EC50 amounted to 160 nM.
For the compound `FC(F)(F)c1cnc2c(c1)CN(c1ncnc3scc(C4CC4)c13)CC2` [Compound 37, 5-cyclopropyl-4-[3-(trifluoromethyl)-7,8-dihydro-5H-1,6-naphthyridin-6-yl]thieno[2,3-d]pyrimidine], the Emax at 30 µM is 22% and the EC50 came out at 1390 nM.
Taken in the same sequence, the figures for `Cc1coc2ncnc(N3CCc4ncc(-c5cnn(C6CC6)c5)cc4C3)c12` [Compound 38, 4-[3-(1-cyclopropylpyrazol-4-yl)-7,8-dihydro-5H-1,6-naphthyridin-6-yl]-5-methyl-furo[2,3-d]pyrimidine] were 83% and 60 nM.
The like results for `Cc1coc2ncnc(N3CCc4ncc(Nc5cccnc5F)cc4C3)c12` [Compound 39, N-(2-fluoro-3-pyridyl)-6-(5-methylfuro[2,3-d]pyrimidin-4-yl)-7,8-dihydro-5H-1,6-naphthyridin-3-amine] were, in that order, 94% and 80 nM.
The like results for `Cc1noc2ncnc(N3CCc4ncc(C(F)(F)F)cc4C3)c12` [Compound 40, 3-methyl-4-[3-(trifluoromethyl)-7,8-dihydro-5H-1,6-naphthyridin-6-yl]isoxazolo[5,4-d]pyrimidine] were, in that order, 94% and 710 nM.
`Cc1coc2ncnc(N3CCc4ncc(C(F)(F)F)cc4C3)c12` [Compound 41, 5-methyl-4-[3-(trifluoromethyl)-7,8-dihydro-5H-1,6-naphthyridin-6-yl]furo[2,3-d]pyrimidine]: the Emax at 30 µM is 86% and the EC50 stood at 50 nM.
Taken in the same sequence, the figures for `Cc1coc2ncnc(N3CCc4ncc(N5CCCn6nccc65)cc4C3)c12` [Compound 42, 4-[3-(6,7-dihydro-5H-pyrazolo[1,5-a]pyrimidin-4-yl)-7,8-dihydro-5H-1,6-naphthyridin-6-yl]-5-methyl-furo[2,3-d]pyrimidine] were 99% and 10 nM.
The like results for `Cc1nn(C)cc1-c1cnc2c(c1)CN(c1ncnc3onc(C)c13)CC2` [Compound 43, 4-[3-(1,3-dimethylpyrazol-4-yl)-7,8-dihydro-5H-1,6-naphthyridin-6-yl]-3-methyl-isoxazolo[5,4-d]pyrimidine] were, in that order, 80% and 590 nM.
The like results for `Cc1nn(C)cc1-c1cnc2c(c1)CN(c1ncnc3occ(C)c13)CC2` [Compound 44, 4-[3-(1,3-dimethylpyrazol-4-yl)-7,8-dihydro-5H-1,6-naphthyridin-6-yl]-5-methyl-furo[2,3-d]pyrimidine] were, in that order, 95% and 120 nM.
